The text below walks through data of ChEMBL document CHEMBL1149654, “Caprolactams as potent CGRP receptor antagonists for the treatment of migraine” (Bioorg Med Chem Lett, 2007).

The structures appear in SMILES notation. Where only a bound is given, the exact number is not on record here.

What is called IC50 is the midpoint of a concentration-inhibition curve. Usually Ki stands for the equilibrium dissociation constant of an inhibitor or competing ligand from its target. The term bioavailability denotes dose-corrected exposure relative to a reference, in per cent. Higher therefore signals much systemic uptake. The CL/F is clearance divided by bioavailability, as obtained after extravascular dosing.

Data set [1] has as its target T1, Calcitonin-gene-related peptide receptor, CALCRL/RAMP1 (Homo sapiens, UniProt O60894+Q16602). In words: Antagonist activity at human CGRP receptor in E10 cells assessed as inhibition of cAMP production. It is filed as functional, cell-based. In general terms: Cyclic AMP is a second messenger, typically raised through Gs and lowered through Gi signalling.
For data set [2], the target named is T1, Calcitonin-gene-related peptide receptor, CALCRL/RAMP1. Kind of data set: Displacement of [125I]CGRP from human CL receptor in RAMP1 membranes. The data set is classed as cell membranes. (Displacement assays read how much labelled ligand stays bound in the presence of the test substance.)
Data set [3] has the same target. Kind of data set: Displacement of [125I]CGRP from human CL receptor in RAMP1 membranes at 100 uM. The data set is classed as cell membranes.
Data set [4] can be described thus: Bioavailability in rat at 10 mg/kg, po. Conditions: in vivo. It is filed as ADME, organism-based.
Data set [5] in a line: Clearance in rat at 10 mg/kg, po. The arrangement: dose 10 mg/kg, route oral. It is filed as ADME, organism-based. To be noted: in vivo.

T1 sequence (O60894 whole entry): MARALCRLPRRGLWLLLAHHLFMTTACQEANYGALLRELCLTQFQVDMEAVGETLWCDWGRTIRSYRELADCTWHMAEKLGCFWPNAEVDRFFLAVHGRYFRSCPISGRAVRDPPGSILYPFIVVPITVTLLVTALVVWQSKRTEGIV
T1 sequence (Q16602 whole entry): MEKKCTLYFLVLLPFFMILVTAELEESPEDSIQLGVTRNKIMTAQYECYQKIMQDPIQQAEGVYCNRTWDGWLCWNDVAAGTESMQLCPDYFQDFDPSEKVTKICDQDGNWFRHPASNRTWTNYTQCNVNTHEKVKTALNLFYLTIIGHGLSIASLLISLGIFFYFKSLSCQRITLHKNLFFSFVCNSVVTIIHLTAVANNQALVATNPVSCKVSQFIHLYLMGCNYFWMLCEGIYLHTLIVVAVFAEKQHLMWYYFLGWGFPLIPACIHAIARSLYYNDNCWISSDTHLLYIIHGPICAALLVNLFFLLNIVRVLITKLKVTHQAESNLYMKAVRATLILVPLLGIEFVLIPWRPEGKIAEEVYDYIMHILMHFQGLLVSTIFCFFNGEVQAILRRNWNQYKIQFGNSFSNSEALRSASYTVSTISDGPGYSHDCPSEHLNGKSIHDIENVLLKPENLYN

For the compound `O=C(N[C@@H]1CCCCN(CC2CC2)C1=O)N1CCC(N2Cc3ccccc3NC2=O)CC1`, the IC50 in data set [1] was 2400 nM. The Ki in data set [2] was 7800 nM.

On to `CC(C)N1C(=O)[C@H](NC(=O)N2CCC(N3Cc4ccccc4NC3=O)CC2)N=C(c2ccccc2)c2ccccc21`, for which the IC50 in data set [1] is 65 nM. For the same compound, the Ki in data set [2] was 55 nM.

As for `O=C(N[C@@H]1CC[C@@H](c2ccccc2)CN(CC2CC2)C1=O)N1CCC(N2Cc3ccccc3NC2=O)CC1`, the IC50 in data set [1] is 36 nM. In addition, the Ki in data set [2] is 25 nM.

In the case of `CC(C)N1C(=O)C(NC(=O)N2CCC(N3Cc4ccccc4NC3=O)CC2)CCc2ccccc21` (configuration not stated), the IC50 in data set [1] was 3100 nM. Besides, the Ki in data set [2] was 3700 nM.

Regarding `O=C(N[C@@H]1CCCCN(Cc2ccccc2)C1=O)N1CCC(N2Cc3ccccc3NC2=O)CC1`, the Ki in data set [2] is 1800 nM.

Regarding `O=C(NC1CC(c2ccccc2)CCN(CC2CC2)C1=O)N1CCC(n2cc(-c3ccccc3)[nH]c2=O)CC1` (racemic; 29), the IC50 in data set [1] was 133 nM. For the same compound, the Ki in data set [2] is 35 nM.

On to `O=C(NC1CCC(c2ccccc2)CN(CC2CC2)C1=O)N1CCC(N2Cc3ccccc3NC2=O)CC1` (racemic; 17), for which the half-maximal inhibitory concentration (IC50) in data set [1] is 778 nM. Moreover, the Ki in data set [2] was 695 nM.

As for `O=C(N[C@H]1CC[C@H](c2ccccc2)CN(CC2CC2)C1=O)N1CCC(N2Cc3ccccc3NC2=O)CC1`, the IC50 in data set [1] was 6630 nM. Besides, in data set [2], the Ki is 5830 nM.

Consider `O=C(N[C@@H]1CCN(Cc2ccccc2)C1=O)N1CCC(N2Cc3ccccc3NC2=O)CC1`, for which the Activity in data set [3] is 63%.

`O=C(N[C@H]1CCCCN(Cc2ccccc2)C1=O)N1CCC(N2Cc3ccccc3NC2=O)CC1`: the Ki in data set [2] is 11100 nM.

As to `O=C(NC1CCC(c2ccccc2)CN(CC2CC2)C1=O)N1CCC(N2Cc3ccccc3NC2=O)CC1` (racemic; 18), in data set [1], the IC50 is 54 nM. The Ki in data set [2] was 31 nM.

For the compound `O=C(NC1CC(c2ccccc2)CCN(CC2CC2)C1=O)N1CCC(n2cc(-c3ccccc3)[nH]c2=O)CC1` (racemic; 30), the IC50 in data set [1] was 141 nM. In addition, in data set [2], the Ki is 17 nM.

With `O=C(N[C@@H]1CC[C@@H](c2ccccc2)CN(CC2CC2)C1=O)N1CCC(n2nc(-c3ccccc3)[nH]c2=O)CC1`, in data set [1], the IC50 is 45 nM. In data set [2], the inhibition constant (Ki) was 29 nM.

Regarding `O=C(NC1CC(c2ccccc2)CCN(CC2CC2)C1=O)N1CCC(n2nc(-c3ccccc3)[nH]c2=O)CC1` (racemic; 28), the IC50 in data set [1] was 488 nM. Moreover, the Ki in data set [2] is 266 nM.

Turning to `CC(C)(C)OC(=O)CN1C(=O)[C@@H](NC(=O)N2CCC(N3Cc4ccccc4NC3=O)CC2)CCC[C@H]1c1ccccc1`, in data set [1], the IC50 is 471 nM. In data set [2], the Ki is more than 10000 nM.

On to `O=C(N[C@@H]1CC[C@@H](c2ccccc2)CN(CC2CC2)C1=O)N1CCC(n2cc(-c3ccccc3)[nH]c2=O)CC1`, for which the IC50 in data set [1] is 4 nM. Also, the Ki in data set [2] is 2 nM. In addition, the bioavailability in data set [4] was 27%. In data set [5], this compound gave a CL/F of 36 mL/min/kg.

On to `O=C(NC1CC(c2ccccc2)CCN(CC2CC2)C1=O)N1CCC(n2nc(-c3ccccc3)[nH]c2=O)CC1` (racemic; 27), for which the IC50 in data set [1] is 3820 nM. For the same compound, in data set [2], the Ki was 544 nM.

For the compound `O=C(N[C@@H]1CCC[C@H](c2ccccc2)N(CC2CC2)C1=O)N1CCC(N2Cc3ccccc3NC2=O)CC1`, in data set [1], the IC50 was 408 nM. The Ki in data set [2] was 689 nM.

`O=C(N[C@@H]1CCCN(Cc2ccccc2)C1=O)N1CCC(N2Cc3ccccc3NC2=O)CC1`: in data set [3], the Activity is 46%.

`O=C(N[C@@H]1CC[C@@H](c2ccccc2)CN(CC2CC2)C1=O)N1CCC(N2CCc3ccccc3NC2=O)CC1`: the IC50 in data set [1] is 32 nM. Moreover, the Ki in data set [2] is 29 nM.

With `CC(C)(C)OC(=O)CN1C(=O)C(NC(=O)N2CCC(N3Cc4ccccc4NC3=O)CC2)CCCC1c1ccccc1` (racemic; 13), the IC50 in data set [1] was 2120 nM. Also, in data set [2], the Ki is 1990 nM.

As to `CC(C)(C)OC(=O)CN1C(=O)C(NC(=O)N2CCC(N3Cc4ccccc4NC3=O)CC2)CCCC1c1ccccc1` (racemic; 12), the Ki in data set [2] was 17000 nM.

As for `CC(C)(C)OC(=O)CN1C(=O)[C@H](NC(=O)N2CCC(N3Cc4ccccc4NC3=O)CC2)CCC[C@@H]1c1ccccc1`, the Ki in data set [2] is 934 nM.
